Values of other authors, collected in US10507186B2, “Methods and compositions particularly for treatment of attention deficit disorder” (Purdue Pharma L.P., priority 2014, dated 2019).
Structures can show the parent of a compound that is named as a salt. Where two headings read alike, the source gives them in different places.

Legend:
[1] = system: ADHD symptoms in patients; details: long-acting lisdexamfetamine dimesylate

COC(=O)C(c1ccccc1)C1CCCCN1 (racemic) [Methylphenidate, dl-threo-methyl-2-phenyl-2-(2-piperidyl)acetate]
degradation amount (as the pH increases to 8.9): up to 100%
stability (in acidic solutions): relatively stable
stability (in basic solutions, hydrolysis of the methyl ester to the free acid): degraded extensively

lisdexamfetamine dimesylate
reported duration of action [1]: up to 14 hours

COC(=O)C(c1ccccc1)C1CCCCN1 (stereo not drawn) [Methylphenidate hydrochloride]
solubility (in acetone): slightly soluble
solubility (in alcohol): soluble
solubility (in chloroform): slightly soluble
solubility (in methanol): freely soluble
solubility (in water): freely soluble
